From article PMC8840560, “Naphthoquine: A Potent Broad-Spectrum Anti-Coronavirus Drug In Vitro” (Molecules, 2022)
Where two headings read alike, the source gives them in different places.

Legend:
HCoV-229E = test: CPE inhibition assay, HCoV-229E-infected Huh7 cells; assay type: cell-based; settings: for IC50: Human coronavirus 229E
SARS-CoV-2 [1] = test system: SARS-CoV-2; set-up: method as in PMID 32194981, PMID 33995308; settings: in vitro; read-out: IC50 anti-SARS-CoV-2 in vitro; cited from earlier work
SARS-CoV-2 [2] = test: Anti-SARS-CoV-2 activity in Vero cells by qRT-PCR of viral RNA in supernatant; assay type: cell-based; settings: Severe acute respiratory syndrome coronavirus 2; SARS-CoV-2 (100 TCID50) in Vero cells, qRT-PCR of supernatant RNA at 48 h, 12 h pretreatment
SARS-CoV-2 [3] = test: Time-of-addition assay against SARS-CoV-2 in Vero cells; assay type: cell-based; settings: 10 µM, qRT-PCR at 48 h
HCoV-OC43 = test: CPE inhibition assay, HCoV-OC43-infected H460 cells; assay type: cell-based; settings: for IC50: Betacoronavirus 1, NCI-H460, HCoV-OC43 (100 TCID50) in H460 cells, CPE, about 72 h, Reed-Muench
in vitro [4] = settings: human, H460 cells
in vitro [5] = settings: human, Huh7 cells

SMILES: CCN(CC)CCCC(C)Nc1ccnc2cc(Cl)ccc12 (stereo not shown) [CQ, Chloroquine phosphate]
- IC50 (HCoV-229E; Huh-7, 48 h): 8.74 ± 7.27 µM
- IC50 (SARS-CoV-2 [1]): < 10 µM
- IC50 (SARS-CoV-2 [2]): 5.85 ± 0.97 µM
- inhibition of SARS-CoV-2 infection at all time points (full-time, first 3 h, last 46 h) (SARS-CoV-2 [3]): effectively inhibit SARS-CoV-2 infection at all time points
- IC50 (HCoV-OC43): 3.16 ± 0.6 µM

SMILES: CCN(CCO)CCCC(C)Nc1ccnc2cc(Cl)ccc12 (stereo not shown) [HCQ, hydroxychloroquine]
- IC50 (SARS-CoV-2 [1]): < 10 µM

SMILES: NC(=O)c1ncn([C@@H]2O[C@H](CO)[C@@H](O)[C@H]2O)n1 [RBV, Ribavirin]
- SI (HCoV-229E): 26.54
- IC50 (HCoV-229E; Huh-7, HCoV-229E (100 TCID50) in Huh7 cells, CPE, about 48 h, Reed-Muench, read-out: IC50): 15.4 ± 5.57 µM
- CC50 at 2 days (in vitro [4]): 318 µM
- CC50 at 2 days (in vitro [5]): 409 µM
- SI (HCoV-OC43): 15.34
- IC50 (HCoV-OC43): 20.7 ± 7.86 µM

SMILES: OC(c1cc(C(F)(F)F)nc2c(C(F)(F)F)cccc12)C1CCCCN1 (stereo not shown) [mefloquine]
- IC50 (SARS-CoV-2 [1]): < 10 µM
